Laboratory results from ChEMBL document CHEMBL1131310 (J Med Chem, 1998).
Values joined by “and” are separate entries in the source; they are usually repeats but may differ in a detail not shown here. Identical values can stand only once.

What was measured:
Gallus gallus = species on record: Gallus gallus; assay: The compound was evaluated for neurite outgrowth from chick dorsal root ganglia; assay type: functional
[1] = target: Peptidyl-prolyl cis-trans isomerase FKBP1A (Homo sapiens, UniProt P62942); assay: The compound was tested for binding affinity against rotamase
Peptidyl-prolyl cis-trans isomerase FKBP1A, sequence (P62942 whole entry): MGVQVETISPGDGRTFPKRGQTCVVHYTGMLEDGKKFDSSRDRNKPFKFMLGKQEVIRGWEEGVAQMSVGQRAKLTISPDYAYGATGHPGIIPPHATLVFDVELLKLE

Structure (SMILES) | ED50 (Gallus gallus) [nM] | Ki [1]
CCC(C)(C)C(=O)C(=O)N1CCCC[C@H]1C(=O)O[C@H](CCc1ccccc1)c1ccccc1 | 0.3 | 
CCC(C)(C)C(=O)C(=O)N1CCCC[C@H]1C(=O)OCCCc1cccnc1 | 8.5 | 165 nM
CCC(C)(C)C(=O)C(=O)N1CCCC[C@H]1C(=O)OCCCc1ccccc1 | 300 | 250 nM and 110 nM
CCC(C)(C)C(=O)C(=O)N1CCC[C@H]1C(=O)OCCCc1ccccc1 | 53 | 
CCC(C)(C)C(=O)C(=O)N1CCC[C@H]1C(=O)OCCCc1cccnc1 [GPI-1046] | 0.05 | 
